Laboratory results from patent publication US20250000093A1, “HETEROCYCLIC COMPOUNDS FOR THE CONTROL OF INVERTEBRATE PESTS” (BASF SE, priority 2021, published 2025).

Experiments:
Assay type in all cases: in vivo
[1] = test system: Dichromothrips corbetti; experiment: B.6 Orchid thrips, floral-immersion technique; conditions: for B.6, 100 ppm: comparative experiment, thrips mortality, unit not given; for mortality at 300 ppm: Dichromothrips corbetti, adult thrips, 72 hours after treatment, read-out: mortality in comparison with untreated controls
Protocol: B.6 Orchid Thrips (Dichromothrips corbetti)
Dichromothrips corbetti adults used for bioassay were obtained from a colony maintained continuously under laboratory conditions. For testing purposes, the test compound is diluted in a 1:1 mixture of acetone:water (vol:vol), plus Kinetic HV at a rate of 0.01% v/v.
Thrips potency of each compound was evaluated by using a floral-immersion technique. All petals of individual, intact orchid flowers were dipped into treatment solution and allowed to dry in Petri dishes. Treated petals were placed into individual re-sealable plastic along with about 20 adult thrips. All test arenas were held under continuous light and a temperature of about 28° C. for duration of the assay. After 3 days, the numbers of live thrips were counted on each petal. The percent mortality was recorded 72 hours after treatment.

[2] = test system: Myzus persicae; experiment: B.2 Green peach aphid, systemic test on artificial diet in microtiter plates; conditions: for B.2, 10 ppm / B.2, 25 ppm: comparative experiment, aphid mortality, unit not given; for mortality at 2500 ppm: Myzus persicae, 72 h, adult aphids, 3 days, read-out: mortality in comparison with untreated controls
From the text: B.2 Green Peach Aphid (Myzus persicae)
For evaluating control of green peach aphid (Myzus persicae) through systemic means the test unit consisted of 96-well-microtiter plates containing liquid artificial diet under an artificial mem brane.
The compounds were formulated using a solution containing 75% v/v water and 25% v/v DMSO. Different concentrations of formulated compounds were pipetted into the aphid diet, using a custom built pipetter, at two replications.
After application, 5-8 adult aphids were placed on the artificial membrane inside the microtiter plate wells. The aphids were then allowed to suck on the treated aphid diet and incubated at about 23±1° C. and about 50±5% relative humidity for 3 days. Aphid mortality and fecundity was then visually assessed.

[3] = test system: Heliothis virescens; experiment: B.3 Tobacco budworm, insect diet and eggs in microtiter plates; conditions: 120 h, egg and larval mortality, 5 days, read-out: mortality in comparison with untreated controls
Protocol: B.3 Tobacco Budworm (Heliothis virescens)
For evaluating control of tobacco budworm (Heliothis virescens) the test unit consisted of 96-well-microtiter plates containing an insect diet and 15-25 H. virescens eggs.
The compounds were formulated using a solution containing 75% v/v water and 25% v/v DMSO. Different concentrations of formulated compounds were sprayed onto the insect diet at 10 μl, using a custom-built micro atomizer, at two replications.
After application, microtiter plates were incubated at about 28±1° C. and about 80±5% relative humidity for 5 days. Egg and larval mortality was then visually assessed.

[4] = test system: Anthonomus grandis; experiment: B.4 Boll weevil, insect diet and eggs in microtiter plates; conditions: 120 h, egg and larval mortality, 5 days, read-out: mortality in comparison with untreated controls
Protocol: B.4 Boll Weevil (Anthonomus grandis)
For evaluating control of boll weevil (Anthonomus grandis) the test unit consisted of 96-well-microtiter plates containing an insect diet and 5-10 A. grandis eggs.
The compounds were formulated using a solution containing 75% v/v water and 25% v/v DMSO. Different concentrations of formulated compounds were sprayed onto the insect diet at 5 μl, using a custom-built micro atomizer, at two replications.
After application, microtiter plates were incubated at about 25±1° C. and about 75±5% relative humidity for 5 days. Egg and larval mortality was then visually assessed.

[5] = test system: Aedes aegypti; experiment: B.7 Yellow fever mosquito, larvae in microtiter plates; conditions: comparative experiment, larval mortality after 2 days, unit not given
Protocol: B.7 Yellow Fever Mosquito (Aedes aegypti)
For evaluating control of yellow fever mosquito (Aedes aegypti) the test unit consisted of 96-well-microtiter plates containing 200 μl of tap water per well and 5-15 freshly hatched A. aegypti larvae.
The active compounds were formulated using a solution containing 75% (v/v) water and 25% (v/v) DMSO. Different concentrations of formulated compounds or mixtures were sprayed onto the insect diet at 2.5 μl, using a custom-built micro atomizer, at two replications.
After application, microtiter plates were incubated at 28±1° C., 80±5% RH for 2 days. Larval mortality was then visually assessed.

[6] = test system: Spodoptera eridania; experiment: B.5 Southern armyworm, 2nd instar larvae, sprayed lima bean plants; conditions: 96 h, 4 days after treatment, read-out: mortality in comparison with untreated controls
Protocol: B.5. Southern Armyworm (Spodoptera eridania), 2nd Instar Larvae
The active compounds were formulated by a Tecan liquid handler in 100% cyclohexanone as a 10,000 ppm solution supplied in tubes. The 10,000 ppm solution was serially diluted in 100% cyclohexanone to make interim solutions. These served as stock solutions for which final dilutions were made by the Tecan in 50% acetone:50% water (v/v) into 10 or 20 ml glass vials. A nonionic surfactant (Kinetic®) was included in the solution at a volume of 0.01% (v/v). The vials were then inserted into an automated electrostatic sprayer equipped with an atomizing nozzle for application to plants/insects. Lima bean plants (variety Sieva) were grown 2 plants to a pot and selected for treatment at the 1st true leaf stage. Test solutions were sprayed onto the foliage by an automated electrostatic plant sprayer equipped with an atomizing spray nozzle. The plants were dried in the sprayer fume hood and then removed from the sprayer. Each pot was placed into perforated plastic bags with a zip closure. Ten to 11 armyworm larvae were placed into the bag and the bags zipped closed. Test plants were maintained in a growth room at about 25° C. and about 20-40% relative humidity for 4 days, avoiding direct exposure to fluorescent light (14:10 light:dark photoperiod) to prevent trapping of heat inside the bags. Mortality and reduced feeding were assessed 4 days after treatment, compared to untreated control plants.

[7] = test system: Plutella xylostella; experiment: B.1 Diamond back moth, cabbage leaf dip test; conditions: foliar, 3rd instar larvae, 72 hours after treatment, read-out: mortality in comparison with untreated controls
Protocol: B.1 Diamond Back Moth (Plutella xylostella)
The active compound was dissolved at the desired concentration in a mixture of 1:1 (vol:vol) distilled water:acetone. Surfactant (Kinetic HV) was added at a rate of 0.01% (vol/vol). The test solution was prepared on the day of use.
Leaves of cabbage were dipped in test solution and air-dried. Treated leaves were placed in petri dishes lined with moist filter paper and inoculated with ten 3rd instar larvae. Mortality was recorded 72 hours after treatment. Feeding damages were also recorded using a scale of 0-100%.

SMILES | B.6, 100 ppm [1] | B.2, 10 ppm [2] | mortality at 300 ppm [1] [%] | mortality at 2500 ppm [3] [%] | mortality at 2500 ppm [2] [%] | mortality at 2500 ppm [4] [%] | B.7, 10 ppm [5] | B.2, 25 ppm [2] | mortality at 300 ppm [6] [%] | mortality at 300 ppm [7] [%]
CC(NC(=O)c1cc(C(F)(F)F)cc(C(F)(F)F)c1)c1nccnc1-n1cncn1 (stereo not shown) [WO2021/037614 P46, reference compound] | 0 | 25 |  |  |  |  |  |  |  | 
CC(NC(=O)c1cc(Br)cc(C(F)(F)F)c1)c1nccnc1-n1ncn(C)c1=O (stereo not shown) [I-1, 3-bromo-N-[1-[3-(4-methyl-5-oxo-1,2,4-triazol-1-yl)pyrazin-2-yl]ethyl]-5-(trifluoromethyl)benzamide] |  |  | ≥ 75 | ≥ 75 | ≥ 75 | ≥ 75 |  |  |  | 
CC(c1nccnc1-n1cncn1)N(CC1CC1)C(=O)c1cc(C(F)(F)F)cc(C(F)(F)F)c1 (stereo not shown) [WO2021/037614 P48, reference compound] |  |  |  |  |  |  | 0 | 50 |  | 
CC(NC(=O)c1cc(C(F)(F)F)cc(C(F)(F)F)c1)c1nccnc1-n1ncn(C)c1=O (stereo not shown) [I-10] | 100 | 100 | ≥ 75 | ≥ 75 | ≥ 75 | ≥ 75 |  |  | ≥ 75 | ≥ 75
COc1ccc(Cn2cnn(-c3nccnc3C(C)NC(=O)c3cc(Br)cc(S(C)(=O)=O)c3)c2=O)cc1 (stereo not shown) [I-3, 3-bromo-N-[1-[3-[4-[(4-methoxyphenyl)methyl]-5-oxo-1,2,4-triazol-1-yl]pyrazin-2-yl]ethyl]-5-methylsulfonyl-benzamide] |  |  |  |  | ≥ 75 |  |  |  |  | 
CC(NC(=O)c1cc(Br)cc(C(F)(F)F)c1)c1nccnc1-n1ncn(CC(F)(F)F)c1=O (stereo not shown) [I-2, 3-bromo-N-[1-[3-[5-oxo-4-(2,2,2-trifluoroethyl)-1,2,4-triazol-1-yl]pyrazin-2-yl]ethyl]-5-(trifluoromethyl)benzamide] |  |  | ≥ 75 | ≥ 75 | ≥ 75 | ≥ 75 |  |  |  | 
CC(c1nccnc1-n1ncn(CC(F)(F)F)c1=O)N(CC1CC1)C(=O)c1cc(C(F)(F)F)cc(C(F)(F)F)c1 (stereo not shown) [I-15] |  |  | ≥ 75 | ≥ 75 | ≥ 75 | ≥ 75 | 100 | 100 | ≥ 75 | ≥ 75
CC(NC(=O)c1cc(Br)cc(S(C)(=O)=O)c1)c1nccnc1-n1ncn(CC2CC2)c1=O (stereo not shown) [I-5, 3-bromo-N-[1-[3-[4-(cyclopropylmethyl)-5-oxo-1,2,4-triazol-1-yl]pyrazin-2-yl]ethyl]-5-methylsulfonyl-benzamide] |  |  |  |  | ≥ 75 | ≥ 75 |  |  | ≥ 75 | ≥ 75
CC(c1nccnc1-n1ncn(C)c1=O)N(C)C(=O)c1cc(Br)cc(S(C)(=O)=O)c1 (stereo not shown) [I-8, 3-bromo-N-methyl-N-[1-[3-(4-methyl-5-oxo-1,2,4-triazol-1-yl)pyrazin-2-yl]ethyl]-5-methylsulfonyl-benzamide] |  |  |  |  | ≥ 75 |  |  |  |  | 
